1 molecule from patent US20230125425A1, “TRADITIONAL CHINESE MEDICINE EXTRACT COMPOSITION WITH FUNCTION OF REGULATING DEPRESSIVE EMOTION AND PREPARATION METHOD AND TRADITIONAL CHINESE MEDICINE PREPARATION THEREOF” (CHENLAND NUTRITIONALS, INC., priority 2019, published 2023) can be followed below.

Where a name gives a salt, the structure may show the parent alone.

What all share (assay type): in vivo
Assay [1] concerns C57BL/6J mice. As to the kind of experiment: Forced swimming test of mice. The note with it: gavage daily for one month, 3.33 mg/kg, x ± SE, hydrochloride. The method, then:
(§1) The mice were kept in a light, temperature and humidity controlled room with 6 mice per cage, and were allowed to eat and drink ad libitum: temperature 21±2° C. humidity 50±10%, 12 h/12 h light and dark cycle (light on at 20:00, light off at 8:00). All animal experiments were conducted in accordance with the guidelines on experiment animal welfare and use issued by NIH.
(§2) The mice were adapted for one week after their arrival, and then entered the experiment.
(§3) The normal group was given the same volume of purified water by gavage, and the gavage doses of other groups are shown in the table in the Experimental results. The mice were administrated by gavage at a fixed time (9:00) every morning, with a gavage volume of 0.1 mL·10g^−1, for one month. The behavioral test was performed 1 h after the last gavage.
During forced swimming, all animals were put into a plexiglass cylinder containing water with a deep of 20 cm at 23±1° C., individually. After 15 minutes, they were transferred to a dry environment at 30° C. for 30 minutes (pre-experiment). After 24 hours, the mice were put into the plexiglass cylinder again for 5 minutes (formal experiment). During this period, the mice were recorded with a video camera. After each mouse was tested, the water was changed and the cylinder was cleaned. SMART3.0 software was used to record the number of static suspension and the latency of static suspension.

Assay [2] has as its system C57BL/6J mice. As to the kind of experiment: Tail suspension test of mice. The note with it: gavage daily for one month, 3.33 mg/kg, last 4 min of 6 min, x ± SE, hydrochloride. The method, then:
as §1, §2, §3
In the tail suspension test, mice were hung on the tail suspension device using medical tape at a position ⅓ from the tip of the tail, in an upright position with the head being about 30 cm from the ground and facing straight onto a camera, which was used to record the immobility time during the tail suspension test of the mice in each group. The test lasted for 6 minutes, and the last 4 minutes were used to calculate the immobility time during the tail suspension test of mice. Immobility time is defined as the time when the mouse stops struggling and is still in a hanging state.

The test system of assay [3] is C57BL/6J mice. Nature of the assay: Open field test of mice. The settings on record: open field 6 min, gavage one month, 3.33 mg/kg, x ± SE, hydrochloride. Here is the method:
as §1, §2, §3
The test was carried out in an open field box with a length of 50 cm, a width of 50 cm and a depth of 50 cm. The bottom surface of the open field box was equally divided into 9 squares, in which the middle area was the central area, and the remaining areas were the peripheral areas. The bottom and four sides of the open field box were all white. The test was carried out in a quiet and weak red light environment. At the beginning, the mice were placed in the center of the open field box to observe their activities within 6 minutes. The total movement distance, the movement distance in the central area and the number of standing upright of the mice were recorded.

Consider `CNCCC(Oc1ccc(C(F)(F)F)cc1)c1ccccc1` (stereo not drawn) [FXT, Fluoxetine hydrochloride], for which the “Number of static suspension” value in the assay on C57BL/6J mice [1] is on record as 54.64 ± 2.704; with C57BL/6J mice [1] (listed as fluoxetine), “significantly less than that of the control group”. For the same molecule, the results for the “Immobility time during tail suspension” value in the assay on C57BL/6J mice [2] and in the assay on C57BL/6J mice [2] (listed as fluoxetine) were 59.62 ± 6.270 s and “significantly less than that of the control group”, respectively. Further, the “Number of standing uprights” value is 29.20 ± 2.133 in the assay on C57BL/6J mice [3] and “no significant change” with C57BL/6J mice [3] (listed as fluoxetine). For the same molecule, the Total movement distance in the assay with C57BL/6J mice [3] was 18435 ± 950.6; in the assay with C57BL/6J mice [3] (listed as fluoxetine), “no significant change”. Moreover, the “Movement distance in the central area” value in the assay with C57BL/6J mice [3] (listed as fluoxetine) is “no significant change”.
